Test results reported in patent US20240158348A1, “HERBICIDAL CYCLIC AMIDES N-SUBSTITUTED WITH A HALOALKYLSULFONYLANILIDE GROUP” (FMC Corporation, priority 2021, published 2024).

Assays:
Type in all cases: in vivo
corn (Zea mays) = assay: Test C preemergence, corn; settings: 0 is no effect, 100 is complete control
Outline: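 Steps: sow in loam soil blended with sand; treat soil preemergence by directed spray, or treat young plants (2–10 cm, one to two leaves) postemergence; hold in greenhouse 10 or 12 days; rate injury visually relative to untreated controls on a 0–100 scale.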

kochia (Bassia scoparia) [1] = assay: Test C preemergence, kochia; settings: 0 is no effect, 100 is complete control
Outline: (§1)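 Greenhouse pot test. Compounds in a non-phytotoxic solvent with surfactant were applied to a loam–sand soil mix either preemergence as a directed spray or postemergence to plants at the one- to two-leaf stage; 0–100 visual ratings followed after 10 or 12 days.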

[2] = system: wheat (Triticum aestivum); assay: Test C preemergence, wheat; settings: 0 is no effect, 100 is complete control
[3] = system: blackgrass (Alopecurus myosuroides); assay: Test C postemergence, blackgrass; settings: visual injury, 0 to 100 scale (0 no effect, 100 complete control)
Outline: as §1

kochia (Bassia scoparia) [4] = assay: Test C postemergence, kochia; settings: visual injury, 0 to 100 scale (0 no effect, 100 complete control)
Outline: as §1

[5] = system: ryegrass, Italian (Italian ryegrass, Lolium multiflorum); assay: Test C postemergence, Italian ryegrass; settings: visual injury, 0 to 100 scale (0 no effect, 100 complete control)
Outline: as §1

[6] = system: galium (catchweed bedstraw, Galium aparine); assay: Test C postemergence, galium; settings: visual injury, 0 to 100 scale (0 no effect, 100 complete control)
rice (Oryza sativa) = assay: Test D flooded paddy test, rice; parameters: key: 0 = no effect, 100 = complete control; settings: 250 g ai/ha, Flood; applied to paddy water at 2-leaf stage; visual rating after 13 days; scale 0 (no effect) to 100 (complete control)
Outline: (§2)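 2-leaf plants; flood 3 cm over soil; cpd into paddy water; depth maintained; greenhouse 13 d; visual rating vs controls, 0 = no effect, 100 = complete control; dash = no result.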

[7] = system: sedge, umbrella (small-flower umbrella sedge, Cyperus difformis); assay: Test D flooded paddy test, umbrella sedge; parameters: key: 0 = no effect, 100 = complete control; settings: 250 g ai/ha, Flood; applied to paddy water at 2-leaf stage; visual rating after 13 days; scale 0 (no effect) to 100 (complete control)
Outline: as §2

Row | Compound | Plant response rating (0 to 100 scale), Corn (corn (Zea mays); 31 g ai/ha Preemergence) | Plant response rating (0 to 100 scale), Corn (corn (Zea mays); 125 g ai/ha Preemergence) | Plant response rating (0 to 100 scale), Kochia (kochia (Bassia scoparia) [1]; 31 g ai/ha Preemergence) | Plant response rating (0 to 100 scale), Kochia (kochia (Bassia scoparia) [1]; 125 g ai/ha Preemergence) | Plant response rating (0 to 100 scale), Wheat ([2]; 31 g ai/ha Preemergence) | Plant response rating (0 to 100 scale), Wheat ([2]; 125 g ai/ha Preemergence) | Blackgrass plant response rating ([3]; 31 g ai/ha Postemergence) | Blackgrass plant response rating ([3]; 125 g ai/ha Postemergence) | Kochia plant response rating (kochia (Bassia scoparia) [4]; 31 g ai/ha Postemergence) | Kochia plant response rating (kochia (Bassia scoparia) [4]; 125 g ai/ha Postemergence) | Ryegrass, Italian plant response rating ([5]; 31 g ai/ha Postemergence) | Ryegrass, Italian plant response rating ([5]; 125 g ai/ha Postemergence) | Galium plant response rating ([6]; 31 g ai/ha Postemergence) | Galium plant response rating ([6]; 125 g ai/ha Postemergence) | Plant response rating, Rice (rice (Oryza sativa)) | Plant response rating, Sedge, Umbrella [7]
1 | Cc1c(NS(=O)(=O)C(F)(F)F)cc(N2CCC(OC3CCC3)C2=O)c(C)c1C (stereo not shown) [Compound 45] | 90 | 100 | 90 | 100 | 60 | 100 | 10 | 40 | 70 | 100 | 0 | 50 | 100 | 100 | 55 | 90
2 | Cc1c(N2CCC(OC3CCC3)C2=O)cc(N(C(=O)OCC(C)C)S(=O)(=O)C(F)(F)F)c(C)c1C (stereo not shown) [Compound 48] | 20 | 60 | 10 | 90 | 30 | 80 | 10 | 30 | 20 | 60 | 40 | 60 | 90 | 100 | 25 | 90
3 | Cc1c(N2CCC(OC3CC3)C2=O)cc(N(COC(=O)C(C)(C)C)S(=O)(=O)C(F)(F)F)c(C)c1C (stereo not shown) [Compound 49] | 0 | 50 | 30 | 70 | 30 | 90 | 30 | 60 | 40 | 60 | 50 | 90 | 80 | 90 | 40 | 90
4 | Cc1c(N2CCC(OC3CCC3)C2=O)cc(N(COC(=O)C(C)(C)C)S(=O)(=O)C(F)(F)F)c(C)c1C (stereo not shown) [Compound 51] | 0 | 40 | 30 | 80 | 10 | 60 | 10 | 20 | 30 | 70 | 20 | 50 | 60 | 90 | 10 | 90
5 | Cc1cc(C)c(N2CCC(OCC3CCC3(F)F)C2=O)cc1NS(=O)(=O)C(F)(F)F (stereo not shown) [Compound 52] | 10 | 90 | 70 | 100 | 90 | 100 | 20 | 40 | 20 | 70 | 40 | 100 | 70 | 100 | 0 | 80
6 | Cc1cc(C)c(N2CCC(OCC3CCCC3)C2=O)cc1NS(=O)(=O)C(F)(F)F (stereo not shown) [Compound 57] | 0 | 50 | 60 | 80 | 20 | 80 | 40 | 80 | 50 | 70 | 20 | 60 | 50 | 90 | 10 | 95
7 | C#CC(C)OC1CCN(c2cc(NS(=O)(=O)C(F)(F)F)c(C)cc2C)C1=O (stereo not shown) [Compound 58] | 20 | 100 | 80 | 90 | 90 | 100 | 50 | 70 | 70 | 90 | 60 | 70 | 90 | 90 | 60 | 95
8 | Cc1cc(C)c(N2CCC(OCc3ccccc3)C2=O)cc1NS(=O)(=O)C(F)(F)F (stereo not shown) [Compound 61] | 20 | 100 | 90 | 100 | 30 | 100 | 30 | 70 | 60 | 90 | 0 | 60 | 70 | 90 | 20 | 90
9 | Cc1c(NS(=O)(=O)C(F)(F)F)cc(N2CCC(OCC3CC3)C2=O)c(C)c1F (stereo not shown) [Compound 63] | 30 | 100 | 90 | 100 | 80 | 100 | 0 | 30 | 80 | 90 | 0 | 10 | 100 | 100 | 45 | 95
10 | Cc1c(NS(=O)(=O)C(F)(F)F)cc(N2CCC(OCC3CCC3)C2=O)c(C)c1F (stereo not shown) [Compound 64] | 10 | 60 | 70 | 90 | 20 | 70 | 0 | 20 | 50 | 100 | 0 | 20 | 100 | 100 | 15 | 95
